Structures are written as SMILES. Structures can show the parent of a compound that is named as a salt.

By IC50 is commonly meant the midpoint of a concentration-inhibition curve.

The target of experiment [1] is T1, D1 receptor (striatum of rat) (Rattus norvegicus, UniProt P18901).
T1 construct: The striatum of rats were excised, homogenized; from tissue; host or cells: rat striatum, synaptosome fraction
Briefly: specific binding of D1 receptors in the striatum of rat. To be noted: displacement of 3H-Sch23390 0.3 nM, rat striatum synaptosome fraction, 37 degree centigrade, 15 minutes. As for the experimental part:
(§1) 1. Test on specific binding of D1 and D2 receptors in the striatum of rat
(§2) The striatum of rats were excised, homogenized with a 0.05M Tris Fuffer and then centrifuged at 20,000×g to collect its synaptosome fraction. The sediment was washed several times with a 0.25M Tris Buffer and suspended in a 0.05M Tris Buffer containing 120 mM of Nacl, 5 mM of KCl, 2 mM of CaCls and 1 mM of MgCl2. The suspension was, in portions, placed in the frozen state at minus 80 degree centigrade. ^3 H-Sch23390 having a final concentration of 0.3 nM in the case of D1 and ^3 H-Spiperone having a finish concentration of 0.2 nM in the case of D2 were added to the portions of the suspension, respectively, together with a specimen. The mixtures were incubased at 37 degree centigrade for 15 minutes. Having been filtrated with a Whatman GF/B filter, they were examined with a liquid scintillation counter.
On the technique in general: In a radioligand displacement assay an active substance lowers the binding of a labelled ligand.

Experiment [2] deals with T2, D2 receptor (striatum of rat) (Rattus norvegicus, UniProt P61169).
T2 construct: The striatum of rats were excised, homogenized; from tissue; host or cells: rat striatum, synaptosome fraction
T2 sequence (P61169 whole entry): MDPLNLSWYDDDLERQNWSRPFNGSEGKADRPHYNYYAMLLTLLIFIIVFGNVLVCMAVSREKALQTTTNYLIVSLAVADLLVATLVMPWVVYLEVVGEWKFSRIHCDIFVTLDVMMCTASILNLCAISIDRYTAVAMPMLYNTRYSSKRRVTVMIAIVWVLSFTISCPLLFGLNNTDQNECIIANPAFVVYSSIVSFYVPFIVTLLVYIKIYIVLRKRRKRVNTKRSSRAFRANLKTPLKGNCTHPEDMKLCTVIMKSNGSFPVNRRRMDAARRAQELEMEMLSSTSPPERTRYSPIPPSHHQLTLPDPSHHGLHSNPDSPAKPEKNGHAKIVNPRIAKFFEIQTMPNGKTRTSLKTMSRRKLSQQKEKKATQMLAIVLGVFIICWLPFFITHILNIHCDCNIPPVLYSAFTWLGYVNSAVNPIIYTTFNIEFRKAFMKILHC
Briefly: specific binding of D2 receptors in the striatum of rat. To be noted: displacement of 3H-Spiperone 0.2 nM, rat striatum synaptosome fraction, 37 degree centigrade, 15 minutes. As for the experimental part:
as §1, §2

The subject of the next experiment is anesthetized dogs. Kind of experiment: Action cardiohemodynamics in anesthetized dogs. Type of experiment: in vivo, Mongrel dogs. To be noted: Canis lupus familiaris, iv, intravenously, read-out: decrease of mean blood pressure; for inhibition in vivo at 0.01 mg/kg: 10 microgram/kg; for inhibition in vivo at 0.003 mg/kg: 3 microgram/kg; for inhibition in vivo at 0.001 mg/kg: 1 microgram/kg. The procedure: 2. Action cardiohemodynamics in anesthetized dogs
Mongrel dogs of about 10 kg were anesthetized with the intravenous administration of 20 mg/kg of thiopental sodium. They were then treated by introducing oxygen gas, nitrous oxide gas and enflurane in combination through an endotracheal tube inserted thereinto to conduct artificial respiration and with an Acoma artificial respirator ARF-850E (trademark) and an Acoma anesthesia apparatus EM-A (trademark) to keep the anesthesia still effective. The aortic pressure and the internal pressure of the left ventricle were determined with a micro-tip catheter pressure transducers, MPC-500, tradename of Miller, inserted at the femoral arteries. The renal blood […] was determined by exposing by laparotomy the renal artery to a probe of an electromagnetic blood flowmeter, MFV-2100, tradename of Nihon Kohden Corp. Results are caught with a polygraph system, RM-6000, tradename of Nihon Kohden Corp.
The specimen was dissolved in a 0.9% saline solution and administered at the brachial vein through a catheter inserted thereinto. When the administration was made at the duodenum, the duodenum was exposed by the median incision to a catheter inserted thereinto. Results are shown in terms of an increase in percent of the renal blood flow and a decrease in percent of the mean blood pressure when the test compound was administered.

T1 sequence (P18901 whole entry): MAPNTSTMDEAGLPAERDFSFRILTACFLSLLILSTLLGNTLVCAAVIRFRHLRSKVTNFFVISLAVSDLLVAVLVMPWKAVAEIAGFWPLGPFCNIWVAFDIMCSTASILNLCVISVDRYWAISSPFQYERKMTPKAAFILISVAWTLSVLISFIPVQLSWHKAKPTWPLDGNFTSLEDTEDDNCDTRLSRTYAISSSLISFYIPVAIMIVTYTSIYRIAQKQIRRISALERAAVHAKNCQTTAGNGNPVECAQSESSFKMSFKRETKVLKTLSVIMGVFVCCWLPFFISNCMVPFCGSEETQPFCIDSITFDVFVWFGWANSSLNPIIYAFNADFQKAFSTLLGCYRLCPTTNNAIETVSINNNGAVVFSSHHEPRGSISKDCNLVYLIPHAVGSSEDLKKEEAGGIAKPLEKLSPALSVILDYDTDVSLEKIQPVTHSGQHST

`Oc1ccc([C@@H]2CNC[C@H]2c2ccccc2)cc1O` (relative stereo) [Compound A, trans-3-(3,4-dihydroxyphenyl)-4-phenylpyrrolidine hydrobromide]: the IC50 in experiment [1] came out at 4800 nM; in experiment [2] it was 88000 nM.

Regarding `Cc1ccccc1[C@@H]1CNC[C@H]1c1ccc(O)c(O)c1` (relative stereo) [Compound B, trans-3-(3,4-dihydroxyphenyl)-4-(2-methylphenyl)pyrrolidine hydrobromide], the results for the IC50 in experiment [1] and in experiment [2] were 600 nM and 10000 nM, respectively. The inhibition in vivo at 0.01 mg/kg with anesthetized dogs amounted to 23%.

With `Oc1ccc([C@@H]2CNC[C@H]2c2ccccc2Cl)cc1O` (relative stereo) [Compound C, trans-3-(2-chlorophenyl)-4-(3,4-dihydroxyphenyl)pyrrolidine hydrobromide], the half-maximal inhibitory concentration (IC50) in experiment [1] came out at 600 nM; in experiment [2], 7000 nM. For the same compound, the inhibition in vivo at 0.01 mg/kg in the experiment with anesthetized dogs is 21%.

As to `Oc1ccc([C@@H]2CNC[C@H]2c2cccc(O)c2Cl)cc1O` (relative stereo) [Compound D, trans-3-(2-chloro-3-hydroxyphenyl)-4-(3,4-dihydroxyphenyl)pyrrolidine hydrobromide], the IC50 is 380 nM in experiment [1] and 5300 nM in experiment [2]. Besides, in the experiment with anesthetized dogs, the inhibition in vivo at 0.003 mg/kg worked out at 15%.

`Cc1ccsc1[C@@H]1CNC[C@H]1c1ccc(O)c(O)c1` (relative stereo) [Compound E, trans-3-(3,4-dihydroxyphenyl)-4-(3-methylthienyl)pyrrolidine hydrobromide]: the results for the IC50 in experiment [1] and in experiment [2] were 170 nM and 90000 nM, respectively. The inhibition in vivo at 0.01 mg/kg in the experiment with anesthetized dogs was 15%.

As for `Cc1ccsc1[C@H]1CNC[C@H]1c1ccc(O)c(O)c1` (relative stereo) [Compound F, cis-3-(3,4-dihydroxyphenyl)-4-(3-methylthienyl)pyrrolidine hydrobromide], the IC50 turned out to be 9000 nM in experiment [1] and 50000 nM in experiment [2].

As to `Oc1ccc([C@@H]2CNC[C@H]2c2cccc3ccsc23)cc1O` (relative stereo) [Compound G, trans-3-(7-benzothiophenyl)-4-(3,4-dihydroxyphenyl)pyrrolidine hydrobromide], the IC50 came to 400 nM in experiment [1] and 6000 nM in experiment [2].

Consider `Oc1ccc([C@@H]2CNC[C@H]2Cc2cc(Cl)ccc2O)cc1O` (relative stereo) [Compound H, trans-3-(3-chloro-6-hydroxyphenyl)-methyl-4-(3,4-dihydroxyphenyl)-pyrrolidine], for which the IC50 in experiment [1] and in experiment [2] was 300 nM each time. Moreover, the inhibition in vivo at 0.003 mg/kg in the experiment on anesthetized dogs was found to be 15%.

With `Oc1ccc([C@@H]2CNC[C@H]2Cc2c(O)cccc2O)cc1O` (relative stereo) [Compound I, trans-3-(2,6-dihydroxyphenyl)methyl-4-(3,4-dihydroxyphenyl)pyrrolidine], the results for the IC50 in experiment [1] and in experiment [2] were 200 nM and 70 nM, respectively. In the experiment with anesthetized dogs, the inhibition in vivo at 0.003 mg/kg was determined as 29%.

For `Oc1ccc([C@@H]2CNC[C@H]2Cc2c(O)ccc(Cl)c2O)cc1O` (relative stereo) [Compound J, trans-3-(3-chloro-2,6-dihydroxyphenyl)-methyl-4-(3,4-dihydroxyphenyl)-pyrrolidine], the IC50 in experiment [1] came out at 130 nM; in experiment [2] it was 1000 nM. In addition, the inhibition in vivo at 0.001 mg/kg in the experiment on anesthetized dogs was 22%.

In the case of `Oc1ccc([C@@H]2CNC[C@H]2Cc2cc(F)cc(F)c2O)cc1O` (relative stereo) [Compound K, trans-3-(3,5-difluoro-2-hydroxyphenyl)-methyl-4-(3,4-dihydroxyphenyl)-pyrrolidine], the IC50 in experiment [1] was 130 nM; in experiment [2], 2000 nM. For the same compound, in the experiment on anesthetized dogs, the inhibition in vivo at 0.001 mg/kg stood at 17%.

On to `Oc1ccc([C@@H]2CNC[C@H]2Cc2cccc(F)c2O)cc1O` (relative stereo) [Compound L, trans-3-(3-fluoro-2-hydroxyphenyl)methyl-4-(3,4-dihydroxyphenyl)pyrrolidine], for which the IC50 in experiment [1] is 200 nM; in experiment [2] it was 5000 nM. Moreover, in the experiment on anesthetized dogs, the inhibition in vivo at 0.003 mg/kg was 21%.

Source of the values: patent publication US5444083A, “Pyrrolidine compound and pharmaceutical use” (Eisai Co., Ltd., priority 1989, dated 1995).
